Source: PMC8958505, “Discovery of Potential Neuroprotective Agents against Paclitaxel-Induced Peripheral Neuropathy” (Journal of Medicinal Chemistry, 2022)
Counter-ions that a name gives are not always drawn. Like-named read-outs stand apart in the source and are kept apart here.

Experiments:
[1] = test system: mouse primary DRG neurons; assay: Neurite outgrowth assay of DRG neurons (image-based HCS) against paclitaxel-induced neurotoxicity; type: cell-based; conditions: for activation at 1 µM: Mus musculus, DRG neuron; for protective efficacy against paclitaxel-induced neurotoxicity (in words): pretreated, + 50 nM paclitaxel
Method: All these 19 compounds were then subjected to the neurite outgrowth assay of dorsal root ganglion (DRG) neurons paired with an image-based HCS to analyze whether they had neuroprotective potential. Quantification of neurite outgrowth under different regimens is shown in Figure 3, wherein DRG neurons incubated in 50 nM paclitaxel could cause 60% reduction in neurite outgrowth compared to the control (no drug treatment). […] Taken together, CN016 is selected as a promising lead for further development.
(§1) Primary cortical or DRG cells were fixed with 4% paraformaldehyde for 15 min following compound and paclitaxel treatment. After washing with PBS, the fixed cells were permeabilized with PBS containing 0.05% Triton X-100 for 20 min and then blocked with commercial blocking buffer (#GTX30963; GeneTex, USA) at room temperature for 1 h. Subsequently, the cortical cells were stained for the extending processes and synaptic puncta by using anti-MAP2 (#MBS502140, 1:500; Mybiosource, USA) and anti-synaptophysin (#ab32127, 1:500; Abcam, UK) overnight. DRG cells were stained for the neurite and neuron nucleus by using anti-β III tubulin (#D71G9, 1:600; Cell Signaling, USA) and anti-NeuN monoclonal antibody (#MAB377, 1:400; Millipore, USA) overnight. On the second day, the samples were washed for 30 min with wash buffer and incubated with secondary antibodies (Alexa-488, 647 1:600; Thermo Fisher, USA) and 4 μg/mL Hoechst 33258 (#94403-1ML, 1:100; Merck, USA) at room temperature for 1 h. In the initial experiments of screening the potential neuroprotective compound for CIPN, ImageXpress^Micro (IXM) high-content imaging system (Molecular Devices, USA) driven by MetaXpress software was used. Images of treated cells were automatically acquired by using a 10× objective. Twenty-one images per well were taken in each of three channels (DAPI, FITC, and Cy5) to create a whole view of the entire neural network. The integrity of the neural network was evaluated using TIF images by importing them into MetaXpress software for analysis using the module for multiparameter, such as Neurite Outgrowth, Cell Scoring, and Transfluor. Furthermore, the score of synaptogenesis was analyzed in AcuityXpress software (Molecular Devices, USA).

primary cortical neurons [2] = assay: Synaptogenesis assay of primary cortical neurons (image-based HCS) against paclitaxel-induced neurotoxicity; type: cell-based, mouse; conditions: for activity at 0.01 µM / activity at 1 µM: Mus musculus, Primary cortical neuron; for activity at 0.01 µM: read-out: A: Synaptogenesis (% of control) of test compound (10 nM) + paclitaxel (1 μM); for activity at 1 µM: read-out: B: Synaptogenesis (% of control) of test compound (1000 nM) + paclitaxel (1 μM); for attenuation of synaptogenesis inhibited by paclitaxel (in words): test compound 10 and 1000 nM prior to paclitaxel 1 μM, Figure 1A
Description: (§2) Herein, we wish to report that an in vitro neurite outgrowth assay of cortical neurons integrated with an image-based high-content screening (HCS) platform is used to evaluate a commercially available library of 78 minoxidil-related derivatives,[22] leading to the identification of a series of analogues able to prevent or alleviate paclitaxel-induced neurotoxicity. The project began with screening compounds with the primary culture of cortical neurons from neonatal mice. More specifically, cerebral cortex neurons cultured from P0 C57BL/6J mouse pups were incubated with a test compound (10 and 1000 nM) prior to paclitaxel (1 μM) treatment. Subsequently, both neurite outgrowth and synaptogenesis were measured to evaluate the test compounds’ neuroprotective capacity. […] This unique feature is preserved for the core-structure screening of our in-house library in the following subject. Moreover, the substituent at the C4 position appears flexible in terms of structural diversity. Collectively, CSV0A024807, the only one displaying the best neuroprotective potency on both neurite outgrowth and synaptogenesis assays, was thus elected as a potential hit compound for further development.
as §1

primary cortical neurons [3] = assay: Neurite outgrowth assay of primary cortical neurons (image-based HCS) against paclitaxel-induced neurotoxicity; type: cell-based, mouse; conditions: Mus musculus, Primary cortical neuron; for activity at 0.01 µM: read-out: C: Neurite outgrowth (% of control) of test compound (10 nM) + paclitaxel (1 μM); for activity at 1 µM: read-out: D: Neurite outgrowth (% of control) of test compound (1000 nM) + paclitaxel (1 μM)
Description: as §2, §1

[4] = Table S2, test compound 1000 nM + paclitaxel 50 nM minus paclitaxel 50 nM, read-out: Neuroprotection rate = (A-B) ± S.E.M [%]
[5] = supplementary CSV, test compound 1000 nM, read-out: A-B (A: neurite outgrowth (% of control) of test compound (1000 nM) + paclitaxel (50 nM), B: of paclitaxel (50 nM))
[6] = test compound 10 nM + paclitaxel 1 μM, mean ± SE
[7] = test compound 1000 nM + paclitaxel 1 μM, mean ± SE

Structure (SMILES) | activity at 0.01 µM (primary cortical neurons [2]; [6]) [%] | activity at 1 µM (primary cortical neurons [2]; [7]) [%] | activity at 0.01 µM (primary cortical neurons [3]; [6]) [%] | activity at 1 µM (primary cortical neurons [3]; [7]) [%] | other results
CCOP(=O)(CCN1CCC(Nc2cc(N3CCOCC3)nc(NCc3cn(CCC(C)(C)O)nn3)n2)CC1)OCC [CN013, {2-[4-(2-{[1-(3-Hydroxy-3-methyl-butyl)-1H-[1,2,3]triazol-4-ylmethyl]-amino}-6-morpholin-4-yl-pyrimidin-4-ylamino)-piperidin-1-yl]-ethyl}-phosphonic Acid Diethyl Ester] |  |  |  |  | activation at 1 µM [1, 4]: 6 ± 1.17%; activation at 1 µM [1, 5]: 6%
COC(=O)CCN1CCC(Nc2cc(N3CCOCC3)nc(NCCCCCCO)n2)CC1 [CN017, Methyl 3-(4-((2-((6-Hydroxyhexyl)amino)-6-morpholinopyrimidin-4-yl)amino)piperidin-1-yl)propanoate] |  |  |  |  | activation at 1 µM [1, 4]: 1 ± 0.51%; activation at 1 µM [1, 5]: 1%; protective efficacy against paclitaxel-induced neurotoxicity (in words) ([1]; DRG neurons): inactive
COCCCn1cc(CNc2nc(NC3CCN(CCC(=O)OC)CC3)cc(N3CCOCC3)n2)nn1 [CN010, 3-[4-(2-{[1-(3-Methoxy-propyl)-1H-[1,2,3]triazol-4-ylmethyl]-amino}-6-morpholin-4-yl-pyrimidin-4-ylamino)-piperidin-1-yl]-propionic Acid Methyl Ester] |  |  |  |  | activation at 1 µM [1, 4]: 5 ± 3.06%; activation at 1 µM [1, 5]: 5%
O=P(O)(O)CCN1CCC(Nc2cc(N3CCOCC3)nc(NCc3ccc(CCO)cc3)n2)CC1 [CN019] |  |  |  |  | activation at 1 µM [1, 4]: -2 ± 1.2%; activation at 1 µM [1, 5]: -2%; protective efficacy against paclitaxel-induced neurotoxicity (in words) ([1]; DRG neurons): inactive
CC(O)CCn1cc(CNc2nc(NC3CCN(CCP(=O)(O)O)CC3)cc(N3CCOCC3)n2)nn1 (centres unmarked) [CN026, {2-[4-(2-{[1-(3-Hydroxy-butyl)-1H-[1,2,3]triazol-4-ylmethyl]-amino}-6-morpholin-4-yl-pyrimidin-4-ylamino)-piperidin-1-yl]-ethyl}-phosphonic Acid Hydrobromide Salt] |  |  |  |  | activation at 1 µM ([1]; Table 1, A: neurite outgrowth (% of control) of test compound 1000 nM + paclitaxel 50 nM, B: paclitaxel 50 nM alone, DRG neurons, read-out: Neuroprotection rate = (A-B)±S.E.M [%]): 11 ± 1.48%; activation at 1 µM [1, 5]: 11%
CCOP(=O)(CCN1CCC(Nc2cc(N3CCOCC3)nc(NCc3ccc(CCO)cc3)n2)CC1)OCC [CN018, Diethyl(2-(4-((2-((4-(2-hydroxyethyl)benzyl)amino)-6-morpholinopyrimidin-4-yl)amino)piperidin-1-yl)ethyl)phosphonate] |  |  |  |  | activation at 1 µM [1, 4]: 3 ± 2.2%; activation at 1 µM [1, 5]: 3%; protective efficacy against paclitaxel-induced neurotoxicity (in words) ([1]; DRG neurons): inactive
Clc1ccc(/C=N/Nc2cc(N3CCOCC3)nc(N3CCOCC3)n2)cc1 [CSV0A024808] | 27 ± 1 | 25 ± 1 | 91 ± 1 | 89 ± 4 | 
CCCN(CCC)c1cc(NNC(=O)CCc2ccccc2)nc(N(CCC)CCC)n1 [CSV0D043578] |  |  |  |  | activity at 0.01 µM (primary cortical neurons [2]): 38 ± 3%; activity at 1 µM (primary cortical neurons [2]): 42 ± 4%; activity at 0.01 µM (primary cortical neurons [3]): 42 ± 5%; activity at 1 µM (primary cortical neurons [3]): 48 ± 1%
CN(C)c1cc(N/N=C/c2ccc(Cl)cc2)nc(N(C)C)n1 [CSV0A027459] | 35 ± 1 | 37 ± 2 | 76 ± 7 | 79 ± 11 | 
O=[N+]([O-])c1ccc(/C=N/Nc2cc(N3CCCCCC3)nc(N3CCCCCC3)n2)cc1 [CSV0A012753] | 60 ± 1 | 61 ± 4 | 77 ± 7 | 75 ± 7 | 
CN(C)c1cc(N/N=C/c2cccs2)nc(N(C)C)n1 [CSV0A055769] | 83 ± 1 | 97 ± 8 | 68 ± 3 | 62 ± 2 | attenuation of synaptogenesis inhibited by paclitaxel (in words) (primary cortical neurons [2]): significantly attenuated
CCN(CC)c1cc(N/N=C/c2ccncc2)nc(N(CC)CC)n1 [CSV0A029945] | 35 ± 6 | 50 ± 0.3 | 41 ± 8 | 75 ± 8 | 
CC(C)(C)c1ccc(C(=O)NNc2cc(N3CCCCC3)nc(N3CCCCC3)n2)cc1 [CSV0B001160] | 51 ± 5 | 41 ± 1 | 89 ± 7 | 80 ± 5 | 
Oc1cccc(/C=N/Nc2cc(N3CCCCC3)nc(N3CCCCC3)n2)c1 [CSV0B001120] | 43 ± 5 | 41 ± 5 | 95 ± 9 | 82 ± 2 | 
Oc1ccccc1/C=N/Nc1cc(N2CCOCC2)nc(N2CCOCC2)n1 [CSV0B002764] | 48 ± 5 | 47 ± 3 | 66 ± 6 | 67 ± 4 | 
COc1ccc(/C=N/Nc2cc(N3CCCC3)nc(N3CCCC3)n2)cc1 [CSV0A024813] | 98 ± 4 | 81 ± 5 | 66 ± 2 | 63 ± 2 | attenuation of synaptogenesis inhibited by paclitaxel (in words) (primary cortical neurons [2]): significantly attenuated
Oc1ccc(Cl)cc1/C=N/Nc1cc(N2CCCC2)nc(N2CCCC2)n1 [CSV0A041619] |  |  |  |  | activity at 0.01 µM (primary cortical neurons [2]): 54 ± 0.03%; activity at 1 µM (primary cortical neurons [2]): 62 ± 2%; activity at 0.01 µM (primary cortical neurons [3]): 62 ± 2%; activity at 1 µM (primary cortical neurons [3]): 61 ± 2%
CCN(CC)c1ccc(/C=N/Nc2cc(N3CCOCC3)nc(N3CCOCC3)n2)cc1 [CSV0A024804] | 67 ± 8 | 62 ± 3 | 68 ± 2 | 66 ± 1 | 
CN(C)c1cc(NNC(=O)c2ccc(C(C)(C)C)cc2)nc(N(C)C)n1 [CSV0B002001] | 35 ± 3 | 35 ± 3 | 44 ± 3 | 44 ± 3 | 
O=[N+]([O-])c1ccc(/C=N/Nc2cc(N3CCCCC3)nc(N3CCCCC3)n2)cc1 [CSV0A011998] | 75 ± 1 | 55 ± 2 | 77 ± 5 | 61 ± 6 | 
O=[N+]([O-])c1cc(/C=N/Nc2cc(N3CCCCCC3)nc(N3CCCCCC3)n2)cc2c1OCO2 [CSV0A024811] | 52 ± 1 | 46 ± 4 | 69 ± 7 | 60 ± 3 | 
